# In patent US6362160B1, “Immunophilin-binding agents prevent glutamate neurotoxicity associated with vascular stroke and neurodegenerative diseases” (The Johns Hopkins University School of Medicine, priority 1993, dated 2002):
# Experiments:
# [1] = system: primary cerebral cortical neuronal cultures; assay: cells; type: cell-based
# Description: Methods: Primary neuronal cultures from cortex were prepared from fetal Sprague-Dawley rats gestation day 13-14. After dissection, the cells were dissociated by trituration, counted, and plated in 15 mm multi-well (Nunc) plates coated with polyornithine at a density of 3-4×10^5 cells per well. Proliferation of non-neuronal cells was inhibited by applying 10 μg of 5-fluor-2′-deoxyuridine 4 days after plating for a total of 3 days. Neurons were maintained in modified Eagle's medium (MEM), 5% horse serum, 2 mM glutamine in 8% CO2, humidified at 37° C. Media was changed twice a week. Mature neurons (greater than 21 days in culture) were used in all experiments.
# Neurotoxicity was determined by exposing the neurons to the various test solutions as previously described (Dawson, et al., Proc. Natl. Acad. Sci., USA, 88:6368-6371 (1991)). Prior to exposure, the cells were washed 3 times with a Tris-buffered control solution (CSS) containing 120 mM NaCl, 5.4 mM KCl, 1.8 mM CaCl2, 25 mM Tris-HCl, 15 mM glucose at pH 7.4. […] Rapamycin (RAPA) was applied 5 min. prior to and during the application of FK-506 and the excitatory amino acids. Following immunosuppressant drug pretreatment, NMDA and quisqualate were applied to the cells for 5 min., then the cells were washed with CSS and replaced with MEM, 21 mM glucose for 24 hr. in the incubator. Exposures to kainate were performed in MEM, 21 mM glucose for 24 hr. in the incubator. NMDA, quisqualate, and kainate were also applied to the neurons without immunosuppressant drug pretreatment. The effect of N-Arg (L-nitroarginine) on NMDA neurotoxicity was assessed as described (Dawson, et al., Proc. Natl. Acad. Sci., USA, 88:6368-6371 (1991)). Twenty to 24 hr. after exposure to test solutions, the neurons were exposed to 0.4% trypan blue in CSS to stain the residue of non-viable cells and to assess toxicity. Viable and non-viable cells were counted with approximately 500-1,500 cells counted per well. At least two separate experiments utilizing four separate wells were performed for each data point shown. A minimum of 4,000-12,000 neurons were counted for each data point. In some experiments photomicrographs were made before and after treatment using a transparent grid at the bottom of each culture plate. Viable and non-viable neurons in identical fields were counted by an observer blinded to study design and treatment protocol.
# [2] = system: NMDA elicited Ca2+ currents; assay: NMDA elicited Ca2+ currents in cortical cultures; type: cell-based, rat; conditions: FK-506 500 nM (data not shown)
# [3] = system: cGMP formation in primary neuronal cortical cultures; assay: cGMP levels in primary neuronal cortical cultures; type: cell-based, rat
# Description: Methods: Primary neuronal cortical cultures were treated under identical conditions as those used for assessment of neurotoxicity except for the addition of 100 μM isobutylmethylxanthine (IBMX) to all wells to inhibit phosphodiesterases. […] Following ether extraction, cGMP was assayed utilizing an Amersham ^125 I-assay kit according to the manufacturer's instructions. Data represent the mean (±S.E.M.) of 6-12 wells (2-3 different plating of cultures) in duplicate. Statistical significance was determined by the Student's t-test, *p≦0.005.
compound,measurement,setting,value
N[C@@H](CCC(=O)O)C(=O)O [Glutamate],% Cell Death (± S.E.M.),[1]; 500 μM Glutamate alone,76.0 ± 5.2%
C=CC[C@@H]1/C=C(\C)C[C@H](C)C[C@H](OC)[C@H]2O[C@@](O)(C(=O)C(=O)N3CCCC[C@H]3C(=O)O[C@H](/C(C)=C/[C@@H]3CC[C@@H](O)[C@H](OC)C3)[C@H](C)[C@@H](O)CC1=O)[C@H](C)C[C@@H]2OC [FK-506],effect on NMDA elicited Ca2+ currents,[2],no effect
same,% Cell Death (± S.E.M.),[1]; 100 μM Kainate + 500 nM FK-506,88.1 ± 3.8%
same,% Cell Death (± S.E.M.),[1]; 500 μM Glutamate + 500 nM FK-506,*40.6 ± 3.9%
same,% Cell Death (± S.E.M.),[1]; 500 μM NMDA + 500 pM FK-506,78.3 ± 4.7%
same,% Cell Death (± S.E.M.),[1]; 500 μM NMDA + 1 nM FK-506,77.1 ± 4.0%
same,% Cell Death (± S.E.M.),[1]; 500 μM NMDA + 10 nM FK-506,68.5 ± 11.2%
same,% Cell Death (± S.E.M.),[1]; 500 μM NMDA + 25 nM FK-506,*67.2 ± 4.1%
same,% Cell Death (± S.E.M.),[1]; 500 μM NMDA + 50 nM FK-506,*61.9 ± 5.8%
same,% Cell Death (± S.E.M.),[1]; 500 μM NMDA + 100 nM FK-506,*40.0 ± 9.1%
same,% Cell Death (± S.E.M.),[1]; 500 μM NMDA + 500 nM FK-506,**29.7 ± 5.8%
same,% Cell Death (± S.E.M.),[1]; 500 μM NMDA + 1 μM FK-506,**29.2 ± 4.1%
same,% Cell Death (± S.E.M.),[1]; 500 μM Quisqualate + 500 nM FK-506,90.5 ± 4.4%
same,EC50,"[1]; Rattus norvegicus, applied 5 min prior to and during 5 min NMDA application, read-out: concentration at which 50% protection from NMDA neurotoxicity is evident",25 to 100 nM
same,lowest concentration providing significant protection from NMDA neurotoxicity,[1]; applied 5 min prior to and during 5 min NMDA application,25 nM
same,% Basal cGMP Level (± S.E.M.),[3]; 300 μM SNP + 100 nM FK-506,509.9 ± 63.4%
same,% Basal cGMP Level (± S.E.M.),[3]; 500 μM NMDA + 100 nM FK-506,*89.3 ± 25.4%
same,reduction of the NMDA stimulation of cGMP levels,[3]; FK-506 100 nM,approximately 80%
"CN[C@H](CC(=O)O)C(=O)O [NMDA, N-methyl-D-aspartate]",% Cell Death (± S.E.M.),"[1]; 500 μM NMDA alone, 5 min exposure, counted 20-24 hr later",82.8 ± 4.3%
same,death of neurons,"[1]; 5 min exposure to NMDA, observed 24 hrs later",about 80%
same,% Basal cGMP Level (± S.E.M.),"[3]; 500 μM NMDA alone, 5 min, 100 μM IBMX",552.6 ± 95.6%
"C=C(C)[C@H]1CN[C@H](C(=O)O)[C@H]1CC(=O)O [Kainate, kainate]",% Cell Death (± S.E.M.),"[1]; 100 μM Kainate alone, 24 hr exposure",83.2 ± 6.3%
same,"cell death elicited, compared with glutamate (500 μM)",[1]; kainate 100 μM,as much cell death as glutamate
"N[C@@H](Cn1oc(=O)[nH]c1=O)C(=O)O [Quisqualate, quisqualate]",% Cell Death (± S.E.M.),"[1]; 500 μM Quisqualate alone, 5 min exposure",85.9 ± 6.0%
same,"cell death elicited, compared with glutamate (500 μM)",[1]; quisqualate 500 μM,as much cell death as glutamate
